Measurements taken from the kinase profiling compilation of Christmann-Franck et al. (2016).

Key:
Assay in all cases: KINOMEscan competition binding
Conditions in all cases: compound 10.0 µM
CDK11B (human) = CDK11B (human) (UniProt P21127)
TEC (human) = TEC (human) (UniProt P42680)
PRKACA (human) = PRKACA (human) (UniProt P17612)
BMPR2 (human) = BMPR2 (human) (UniProt Q13873)
PAK4 (human) = PAK4 (human) (UniProt O96013)
PIK3CD (human) = PIK3CD (human) (UniProt O00329)
PIM1 (human) = PIM1 (human) (UniProt P11309)
RPS6KA1 KD1 (human) = RPS6KA1 KD1 (human) (UniProt Q15418)
[1] = test system: KIT (human), P10721 [D816V]
MAPKAPK5 (human) = MAPKAPK5 (human) (UniProt Q8IW41)
STK11 (human) = STK11 (human) (UniProt Q15831)
NEK9 (human) = NEK9 (human) (UniProt Q8TD19)
MYO3B (human) = MYO3B (human) (UniProt Q8WXR4)
CDK8 (human) = CDK8 (human) (UniProt P49336)
MAP2K6 (human) = MAP2K6 (human) (UniProt P52564)
FYN (human) = FYN (human) (UniProt P06241)
MARK1 (human) = MARK1 (human) (UniProt Q9P0L2)
EIF2AK2 (human) = EIF2AK2 (human) (UniProt P19525)
PDGFRB (human) = PDGFRB (human) (UniProt P09619)
RET (human) = RET (human) (UniProt P07949)
MYLK (human) = MYLK (human) (UniProt Q15746)
CSNK1D (human) = CSNK1D (human) (UniProt P48730)
[2] = molecular target: TYK2 JH2 pseudokinase (human) (UniProt P29597)
BMPR1A (human) = BMPR1A (human) (UniProt P36894)
PRKD2 (human) = PRKD2 (human) (UniProt Q9BZL6)
CDK17 (human) = CDK17 (human) (UniProt Q00537)
EPHB2 (human) = EPHB2 (human) (UniProt P29323)
SRC (human) = SRC (human) (UniProt P12931)
IRAK3 (human) = IRAK3 (human) (UniProt Q9Y616)
ABL2 (human) = ABL2 (human) (UniProt P42684)
CAMKK1 (human) = CAMKK1 (human) (UniProt Q8N5S9)
CDK18 (human) = CDK18 (human) (UniProt Q07002)
CAMK4 (human) = CAMK4 (human) (UniProt Q16566)
MAP2K3 (human) = MAP2K3 (human) (UniProt P46734)
MAP3K3 (human) = MAP3K3 (human) (UniProt Q99759)
CDKL2 (human) = CDKL2 (human) (UniProt Q92772)
CDC42BPB (human) = CDC42BPB (human) (UniProt Q9Y5S2)
STK33 (human) = STK33 (human) (UniProt Q9BYT3)
MLTK (human) = MLTK (human) (UniProt Q9NYL2)
[3] = test system: ABL1 (human), P00519 [M351T]

Sequence of BMPR1A (human) (P36894 whole entry, looked up): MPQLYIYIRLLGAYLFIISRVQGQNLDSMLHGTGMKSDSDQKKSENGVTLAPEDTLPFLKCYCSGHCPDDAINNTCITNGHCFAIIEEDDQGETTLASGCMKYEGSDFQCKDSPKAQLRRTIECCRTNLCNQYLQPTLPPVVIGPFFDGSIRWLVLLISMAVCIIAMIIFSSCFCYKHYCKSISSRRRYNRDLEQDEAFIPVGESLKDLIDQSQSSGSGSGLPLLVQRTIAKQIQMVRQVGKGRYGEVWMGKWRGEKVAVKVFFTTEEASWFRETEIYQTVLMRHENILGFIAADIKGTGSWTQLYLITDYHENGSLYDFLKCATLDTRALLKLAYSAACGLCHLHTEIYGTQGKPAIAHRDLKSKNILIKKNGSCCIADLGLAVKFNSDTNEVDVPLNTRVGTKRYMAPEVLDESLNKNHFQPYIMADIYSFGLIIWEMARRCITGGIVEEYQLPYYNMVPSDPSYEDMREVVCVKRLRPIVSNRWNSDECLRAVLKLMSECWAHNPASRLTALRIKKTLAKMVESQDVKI
Sequence of CDK11B (human) (P21127 whole entry, looked up): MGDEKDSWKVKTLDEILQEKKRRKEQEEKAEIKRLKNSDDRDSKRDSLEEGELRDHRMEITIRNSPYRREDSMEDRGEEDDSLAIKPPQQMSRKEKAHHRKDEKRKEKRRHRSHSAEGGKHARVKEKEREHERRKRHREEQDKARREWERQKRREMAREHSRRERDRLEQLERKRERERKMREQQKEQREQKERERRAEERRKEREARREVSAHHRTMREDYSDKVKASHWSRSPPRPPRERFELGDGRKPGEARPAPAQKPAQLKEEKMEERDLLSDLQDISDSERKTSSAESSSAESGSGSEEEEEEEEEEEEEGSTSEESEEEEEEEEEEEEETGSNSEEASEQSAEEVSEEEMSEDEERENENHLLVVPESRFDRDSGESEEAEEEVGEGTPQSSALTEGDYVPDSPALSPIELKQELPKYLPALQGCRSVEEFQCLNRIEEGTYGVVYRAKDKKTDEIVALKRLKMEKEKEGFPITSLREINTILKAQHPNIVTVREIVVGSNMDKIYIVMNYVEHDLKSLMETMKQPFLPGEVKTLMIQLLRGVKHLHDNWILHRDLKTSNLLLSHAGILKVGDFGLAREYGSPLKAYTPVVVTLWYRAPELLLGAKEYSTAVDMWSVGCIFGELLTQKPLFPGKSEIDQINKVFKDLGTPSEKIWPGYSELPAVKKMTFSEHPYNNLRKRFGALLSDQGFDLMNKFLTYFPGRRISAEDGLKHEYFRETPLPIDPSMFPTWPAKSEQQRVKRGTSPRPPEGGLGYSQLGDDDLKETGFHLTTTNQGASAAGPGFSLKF
Sequence of CDC42BPB (human) (Q9Y5S2 whole entry, looked up): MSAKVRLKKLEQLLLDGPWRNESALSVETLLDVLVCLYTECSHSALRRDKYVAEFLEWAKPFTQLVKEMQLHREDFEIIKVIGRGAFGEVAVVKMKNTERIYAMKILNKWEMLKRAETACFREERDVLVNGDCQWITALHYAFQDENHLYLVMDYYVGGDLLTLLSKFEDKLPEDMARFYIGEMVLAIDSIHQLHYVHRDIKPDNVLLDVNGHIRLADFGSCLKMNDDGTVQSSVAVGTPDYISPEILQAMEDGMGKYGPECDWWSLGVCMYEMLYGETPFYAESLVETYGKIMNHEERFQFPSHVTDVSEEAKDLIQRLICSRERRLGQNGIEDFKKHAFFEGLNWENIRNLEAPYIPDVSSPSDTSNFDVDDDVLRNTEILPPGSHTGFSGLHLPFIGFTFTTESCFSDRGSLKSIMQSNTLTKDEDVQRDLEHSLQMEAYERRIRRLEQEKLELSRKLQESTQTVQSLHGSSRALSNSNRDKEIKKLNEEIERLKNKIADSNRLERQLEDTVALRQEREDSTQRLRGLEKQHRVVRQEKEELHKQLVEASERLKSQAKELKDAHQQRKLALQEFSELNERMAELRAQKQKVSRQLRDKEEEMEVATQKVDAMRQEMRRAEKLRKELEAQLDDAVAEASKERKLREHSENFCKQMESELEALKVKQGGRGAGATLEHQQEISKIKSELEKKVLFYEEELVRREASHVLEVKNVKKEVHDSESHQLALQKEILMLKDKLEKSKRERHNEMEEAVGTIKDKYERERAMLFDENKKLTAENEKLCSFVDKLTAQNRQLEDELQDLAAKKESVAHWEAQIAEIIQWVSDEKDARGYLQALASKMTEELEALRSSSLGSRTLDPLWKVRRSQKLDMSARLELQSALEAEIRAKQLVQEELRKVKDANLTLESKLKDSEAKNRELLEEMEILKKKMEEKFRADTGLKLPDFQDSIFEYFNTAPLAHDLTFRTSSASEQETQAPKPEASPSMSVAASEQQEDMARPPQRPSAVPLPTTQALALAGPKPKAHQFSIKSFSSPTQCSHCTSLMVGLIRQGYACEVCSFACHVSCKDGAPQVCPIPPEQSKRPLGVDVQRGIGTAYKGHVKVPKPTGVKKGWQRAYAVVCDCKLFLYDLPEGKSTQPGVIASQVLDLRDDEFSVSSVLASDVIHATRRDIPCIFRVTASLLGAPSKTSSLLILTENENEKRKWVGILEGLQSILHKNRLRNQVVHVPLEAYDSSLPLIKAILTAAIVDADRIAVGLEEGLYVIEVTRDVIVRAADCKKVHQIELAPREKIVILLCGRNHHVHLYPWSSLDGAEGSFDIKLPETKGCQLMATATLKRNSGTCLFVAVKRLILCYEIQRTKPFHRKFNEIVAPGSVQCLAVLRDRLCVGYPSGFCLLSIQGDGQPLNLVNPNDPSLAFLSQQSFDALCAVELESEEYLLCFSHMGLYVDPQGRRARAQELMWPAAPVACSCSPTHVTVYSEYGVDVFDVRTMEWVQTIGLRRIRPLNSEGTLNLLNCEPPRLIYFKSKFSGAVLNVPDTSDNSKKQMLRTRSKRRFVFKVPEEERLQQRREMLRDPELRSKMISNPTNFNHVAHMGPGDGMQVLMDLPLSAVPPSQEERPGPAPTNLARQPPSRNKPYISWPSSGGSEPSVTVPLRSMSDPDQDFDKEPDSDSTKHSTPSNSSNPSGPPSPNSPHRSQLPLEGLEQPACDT
Sequence of BMPR2 (human) (Q13873 whole entry, looked up): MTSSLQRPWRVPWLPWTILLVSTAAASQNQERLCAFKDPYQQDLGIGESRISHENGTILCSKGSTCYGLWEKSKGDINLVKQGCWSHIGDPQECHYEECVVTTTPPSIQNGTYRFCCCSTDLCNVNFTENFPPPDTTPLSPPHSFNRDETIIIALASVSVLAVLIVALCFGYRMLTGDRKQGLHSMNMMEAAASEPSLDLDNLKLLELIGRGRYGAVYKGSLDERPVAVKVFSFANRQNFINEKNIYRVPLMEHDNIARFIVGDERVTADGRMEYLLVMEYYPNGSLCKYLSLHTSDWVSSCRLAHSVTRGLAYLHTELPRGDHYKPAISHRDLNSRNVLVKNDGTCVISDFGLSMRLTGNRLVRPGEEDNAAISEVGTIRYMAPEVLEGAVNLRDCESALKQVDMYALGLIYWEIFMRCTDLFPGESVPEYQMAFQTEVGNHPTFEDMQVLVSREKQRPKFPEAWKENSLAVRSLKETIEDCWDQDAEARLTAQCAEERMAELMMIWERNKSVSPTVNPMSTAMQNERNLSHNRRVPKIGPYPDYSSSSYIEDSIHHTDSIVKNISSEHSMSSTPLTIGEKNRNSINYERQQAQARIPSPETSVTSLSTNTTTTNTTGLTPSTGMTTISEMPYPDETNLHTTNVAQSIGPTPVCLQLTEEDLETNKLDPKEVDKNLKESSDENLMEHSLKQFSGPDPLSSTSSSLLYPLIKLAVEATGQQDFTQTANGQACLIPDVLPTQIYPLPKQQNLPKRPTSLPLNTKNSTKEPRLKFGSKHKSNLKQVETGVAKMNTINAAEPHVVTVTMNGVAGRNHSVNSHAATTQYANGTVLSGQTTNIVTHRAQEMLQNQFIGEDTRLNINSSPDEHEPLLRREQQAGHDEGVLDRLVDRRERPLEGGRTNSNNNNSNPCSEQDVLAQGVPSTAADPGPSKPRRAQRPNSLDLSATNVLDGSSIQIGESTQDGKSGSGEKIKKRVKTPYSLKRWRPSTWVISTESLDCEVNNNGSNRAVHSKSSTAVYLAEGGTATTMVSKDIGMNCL
Sequence of CAMKK1 (human) (Q8N5S9 whole entry, looked up): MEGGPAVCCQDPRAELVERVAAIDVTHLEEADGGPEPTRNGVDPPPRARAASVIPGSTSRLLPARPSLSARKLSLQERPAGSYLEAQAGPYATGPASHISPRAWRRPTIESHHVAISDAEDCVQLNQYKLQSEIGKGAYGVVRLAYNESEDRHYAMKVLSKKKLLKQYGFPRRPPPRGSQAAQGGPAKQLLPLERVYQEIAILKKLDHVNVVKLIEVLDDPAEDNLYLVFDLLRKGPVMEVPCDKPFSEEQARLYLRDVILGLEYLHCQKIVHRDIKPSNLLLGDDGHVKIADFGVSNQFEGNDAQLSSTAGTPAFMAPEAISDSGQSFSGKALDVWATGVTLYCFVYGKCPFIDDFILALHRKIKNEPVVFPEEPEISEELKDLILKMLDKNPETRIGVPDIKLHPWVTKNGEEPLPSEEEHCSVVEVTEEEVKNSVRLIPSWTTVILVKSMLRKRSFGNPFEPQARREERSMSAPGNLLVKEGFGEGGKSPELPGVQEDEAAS
Sequence of MAP2K3 (human) (P46734 whole entry, looked up): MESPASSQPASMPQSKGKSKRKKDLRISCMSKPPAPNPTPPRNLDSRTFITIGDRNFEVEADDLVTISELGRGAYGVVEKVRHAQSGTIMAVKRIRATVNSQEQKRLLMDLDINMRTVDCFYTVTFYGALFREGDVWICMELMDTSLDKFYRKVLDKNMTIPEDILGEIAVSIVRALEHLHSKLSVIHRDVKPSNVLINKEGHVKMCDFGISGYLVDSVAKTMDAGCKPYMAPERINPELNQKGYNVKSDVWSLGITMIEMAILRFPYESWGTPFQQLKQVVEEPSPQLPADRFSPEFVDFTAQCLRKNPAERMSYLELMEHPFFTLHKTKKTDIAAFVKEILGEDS

SMILES | kinase still bound, per cent of control (CDK11B (human)) | kinase still bound, per cent of control (TEC (human)) | kinase still bound, per cent of control (PRKACA (human)) | kinase still bound, per cent of control (BMPR2 (human)) | kinase still bound, per cent of control (PAK4 (human)) | kinase still bound, per cent of control (PIK3CD (human)) | kinase still bound, per cent of control (PIM1 (human)) | kinase still bound, per cent of control (RPS6KA1 KD1 (human)) | kinase still bound, per cent of control [1] | kinase still bound, per cent of control (MAPKAPK5 (human)) | kinase still bound, per cent of control (STK11 (human)) | kinase still bound, per cent of control (NEK9 (human)) | kinase still bound, per cent of control (MYO3B (human)) | kinase still bound, per cent of control (CDK8 (human)) | kinase still bound, per cent of control (MAP2K6 (human)) | kinase still bound, per cent of control (FYN (human)) | kinase still bound, per cent of control (MARK1 (human)) | kinase still bound, per cent of control (EIF2AK2 (human)) | kinase still bound, per cent of control (PDGFRB (human)) | kinase still bound, per cent of control (RET (human)) | also measured
CCN1CCN(Cc2ccc(Nc3ncc4c(n3)N(C)c3ccccc3C(=O)N4C)cc2C(F)(F)F)CC1 | 99% | 99% | 100% | 91% | 80% | 0% | 86% | 100% | 46% | 100% | 89% | 72% | 100% | 94% | 75% | 20% | 21% | 95% | 56% | 2.4% | kinase still bound, per cent of control (MYLK (human)): 64%; kinase still bound, per cent of control (CSNK1D (human)): 32%; kinase still bound, per cent of control [2]: 13%; kinase still bound, per cent of control (BMPR1A (human)): 8.2%; kinase still bound, per cent of control (PRKD2 (human)): 25%; kinase still bound, per cent of control (CDK17 (human)): 88%; kinase still bound, per cent of control (EPHB2 (human)): 100%; kinase still bound, per cent of control (SRC (human)): 2%; kinase still bound, per cent of control (IRAK3 (human)): 69%; kinase still bound, per cent of control (ABL2 (human)): 3%; kinase still bound, per cent of control (CAMKK1 (human)): 79%; kinase still bound, per cent of control (CDK18 (human)): 97%; kinase still bound, per cent of control (CAMK4 (human)): 100%; kinase still bound, per cent of control (MAP2K3 (human)): 74%; kinase still bound, per cent of control (MAP3K3 (human)): 0.65%; kinase still bound, per cent of control (CDKL2 (human)): 80%; kinase still bound, per cent of control (CDC42BPB (human)): 99%; kinase still bound, per cent of control (STK33 (human)): 36%; kinase still bound, per cent of control (MLTK (human)): 65%; kinase still bound, per cent of control [3]: 0.65%
N#Cc1c(NC(=O)c2cccc3ccccc23)sc2c1CCCC2 | 95% | 91% | 78% | 100% | 100% | 100% | 100% | 100% | 97% | 100% | 81% | 70% | 88% | 100% | 100% | 63% | 100% | 100% | 44% | 94% | kinase still bound, per cent of control (MYLK (human)): 99%; kinase still bound, per cent of control (CSNK1D (human)): 100%; kinase still bound, per cent of control [2]: 100%; kinase still bound, per cent of control (BMPR1A (human)): 96%; kinase still bound, per cent of control (PRKD2 (human)): 88%; kinase still bound, per cent of control (CDK17 (human)): 93%; kinase still bound, per cent of control (EPHB2 (human)): 75%; kinase still bound, per cent of control (SRC (human)): 81%; kinase still bound, per cent of control (IRAK3 (human)): 100%; kinase still bound, per cent of control (ABL2 (human)): 86%; kinase still bound, per cent of control (CAMKK1 (human)): 91%; kinase still bound, per cent of control (CDK18 (human)): 95%; kinase still bound, per cent of control (CAMK4 (human)): 100%; kinase still bound, per cent of control (MAP2K3 (human)): 88%; kinase still bound, per cent of control (MAP3K3 (human)): 96%; kinase still bound, per cent of control (CDKL2 (human)): 97%; kinase still bound, per cent of control (CDC42BPB (human)): 80%; kinase still bound, per cent of control (STK33 (human)): 86%; kinase still bound, per cent of control (MLTK (human)): 87%; kinase still bound, per cent of control [3]: 98%
